{"source": "paper PMC5094555", "about": "“Human Mitochondrial Cytochrome b Variants Studied in Yeast: Not All Are Silent Polymorphisms” (Human Mutation, 2016)", "key": {"[1]": {"target": "yeast complex III, cytochrome b p.Ser172Gly (Saccharomyces cerevisiae, UniProt P00163, S172G)", "format": "biochemical", "details": "this work", "procedure": "Yeast mitochondria were prepared as in Lemaire and Dujardin (2008). Briefly, yeast grown in YPGal medium were harvested at mid‐log phase. Protoplasts were obtained by enzymatic digestion of the cell wall using zymolyase in an osmotic protection buffer. Mitochondria were then prepared by differential centrifugation following osmotic shock of the protoplasts. Mitochondrial samples were aliquoted and stored at −80°C. Concentration of complex III in the mitochondrial samples was determined from dithionite‐reduced optical spectra, using ε = 28.5 mM^−1/cm at 562 − 575 nm. Decylubiquinol‐cytochrome c reductase activities were determined at room temperature by measuring the reduction of cytochrome c (final concentration of 20 μM) at 550 nm versus 540 nm over 1‐min time course in 10 mM potassium phosphate pH 7, 0.01% (w/v) lauryl‐maltoside and 1 mM KCN. Mitochondria were added to obtain a final concentration of 5–30 nM of complex III. […] Initial rates were measured as a function of the decylubiquinol concentration. […]\nCytochrome c reduction activity was measured as described above in the presence of increasing concentrations of inhibitors (six to 10 different concentrations). […] The midpoint inhibition concentrations (IC50) were determined from the titrations and the IC50 values were normalized by the concentration of complex III."}, "[2]": {"tested_on": "yeast AD1-9 strains (wild type and cytochrome b mutants)", "assay": "Respiratory growth assay with increasing concentration of drug", "format": "cell-based, Saccharomyces cerevisiae", "description": "Diploids were used in the experiments, except for monitoring the sensitivity of respiratory growth to atovaquone, where the AD1‐9 series was used.\nYeast strains were grown in 5 ml of YPEth medium with increasing concentration of drug. Cultures were inoculated from 1‐day‐old cultures on YPG to an OD600 nm of 0.2 and incubated at 28°C with vigorous shaking to maintain good aeration. Cell densities measured as OD600 nm were estimated 2 or 3 days after inoculation."}, "[3]": {"target": "T1, yeast complex III (wild type) (Saccharomyces cerevisiae, UniProt P00163)", "T1 construct": "Mitochondria were added to obtain a final concentration of 5–30 nM of complex III; endogenous in cells; host or cells: mitochondria prepared from S. cerevisiae grown in YPGal (diploid strains)", "design": "method as in Vallières et al., 2013", "details": "atovaquone; per nM complex III; yeast enzyme; ref Vallières et al., 2013; read-out: IC50 (midpoint inhibition concentration); cited from earlier work"}, "bovine complex III": {"target": "T2, bovine complex III (Bos taurus, UniProt P00157)", "T2 construct": "catalytic activity of bovine and yeast complex III, using purified mitochondria; from tissue", "design": "method as in Vallières et al., 2013", "details": "atovaquone; per nM complex III; bovine enzyme; ref Vallières et al., 2013; read-out: IC50 (midpoint inhibition concentration); cited from earlier work"}, "[4]": {"tested_on": "malaria parasite complex III", "design": "method as in Biagini et al., 2008", "details": "atovaquone; malaria parasite enzyme; ref Biagini et al., 2008; cited from earlier work"}, "[5]": {"tested_on": "yeast complex III, cytochrome b CysCysVal 133-135 ValLeuPro", "design": "method as in Fisher and Meunier 2005", "details": "ref Fisher and Meunier 2005; cited from earlier work"}, "[6]": {"tested_on": "yeast complex III, cytochrome b p.His141Tyr", "design": "method as in Vallières et al. 2013", "details": "ref Vallières et al. 2013; cited from earlier work"}, "[7]": {"tested_on": "yeast complex III, cytochrome b p.His141Phe", "design": "method as in Fisher and Meunier 2005", "details": "ref Fisher and Meunier 2005; cited from earlier work"}}}
{"smiles": "O=C1C(O)=C([C@H]2CC[C@H](c3ccc(Cl)cc3)CC2)C(=O)c2ccccc21", "note": "[atovaquone]", "values": [{"measurement": "atovaquone sensitivity (IC50 mutant/IC50 control)", "setting": "[1]", "value": 1.1}, {"measurement": "Sensitivity of respiratory growth to atovaquone", "setting": "[2]; strain HS-p.Ser172Asn (humanised Qo site), versus control strain (Fig. 3C)", "value": "inhibited at slightly higher doses of atovaquone than the control strain"}, {"measurement": "Sensitivity of respiratory growth to atovaquone", "setting": "[2]; strain HS-p.Ser172Asn versus HS-p.Ser172Asp (Fig. 3C)", "value": "more sensitive"}, {"measurement": "Sensitivity of respiratory growth to atovaquone", "setting": "[2]; strain HS-p.Ser172Asp (humanised Qo site), versus control strain (Fig. 3C)", "value": "inhibited at slightly higher doses of atovaquone than the control strain"}, {"measurement": "Sensitivity of respiratory growth to atovaquone", "setting": "[2]; strain p.Ser172Asn, compared with p.Ser172Asp and p.Leu150Phe (Fig. 3B)", "value": "increased sensitivity compared with p.Ser172Asp"}, {"measurement": "Sensitivity of respiratory growth to atovaquone", "setting": "[2]; strain p.Ser172Gly, compared with p.Ser172Asp and p.Leu150Phe (Fig. 3B)", "value": "increased sensitivity compared with p.Ser172Asp"}, {"measurement": "Sensitivity of respiratory growth to atovaquone", "setting": "[2]; wt strain, compared with p.Ser172Asp and p.Leu150Phe (Fig. 3B)", "value": "increased sensitivity compared with p.Ser172Asp"}, {"measurement": "IC50", "setting": "[3]", "value": 4, "unit": "nM"}, {"measurement": "IC50", "setting": "bovine complex III", "value": 75, "unit": "nM"}, {"measurement": "IC50", "setting": "[4]", "value": "~3", "unit": "nM"}, {"measurement": "atovaquone sensitivity (IC50 mutant/IC50 control)", "setting": "[5]", "value": 3.5}, {"measurement": "atovaquone sensitivity (IC50 mutant/IC50 control)", "setting": "[6]", "value": 0.5}, {"measurement": "atovaquone sensitivity (IC50 mutant/IC50 control)", "setting": "[7]", "value": 0.4}]}
